Molecular target: T1, IRAK4 (Homo sapiens, UniProt Q9NWZ3)
T1 construct: endogenous in cells; host or cells: OCI-Ly10
T1 sequence (Q9NWZ3 1-460): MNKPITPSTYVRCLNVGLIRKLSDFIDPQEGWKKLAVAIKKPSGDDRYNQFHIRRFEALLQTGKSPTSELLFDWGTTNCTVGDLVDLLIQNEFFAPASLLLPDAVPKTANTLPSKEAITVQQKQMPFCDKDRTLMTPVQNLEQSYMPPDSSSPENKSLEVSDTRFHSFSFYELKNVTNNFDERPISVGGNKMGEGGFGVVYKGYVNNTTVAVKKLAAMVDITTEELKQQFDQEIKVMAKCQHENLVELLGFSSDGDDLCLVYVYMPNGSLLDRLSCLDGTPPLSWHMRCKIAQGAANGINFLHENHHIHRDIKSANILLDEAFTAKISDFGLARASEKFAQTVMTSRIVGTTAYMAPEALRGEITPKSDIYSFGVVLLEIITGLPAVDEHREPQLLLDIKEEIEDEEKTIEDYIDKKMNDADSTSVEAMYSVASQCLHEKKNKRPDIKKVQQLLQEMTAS
Test: OCI-LY10 IRAK MSD assay DC50 (IRAK4 degradation)
Format: cell-based
Conditions: OCI-Ly10 cells, incubated for 4 hr, concentration of compound required to degrade 50% of protein
Procedure: A MSD assay is run to determine the concentration of compound required to degrade 50% of protein (DC50).
• Compounds were reconstituted to 10 mM in stock solutions. The stock solutions were diluted to 5 mM and 45 μL of each dilution was transferred to a 384 pp-plate. A 3 fold, 8-point serial dilution was performed by transferring 15 μL of compound into 30 μL DMSO using Janus. • 20 nL of each compound were added into each well of a 96-well plate (Corning3799). • OCI-Ly10 cells were seeded into the 96-well plate at 3.0*10e^5 cells/100 μL/well. • The cell plate was shaken at 720 rpm for 5 min and incubated for 4 hr. • 100 μL of cells were transferred into the 96-PCR plate and spun down at high speed for 5 mins. • The supernatant was discarded and 100 μL of RIPA lysis buffer with proteinase inhibitors was added per well. The plate was then sealed and shaken at 600 rpm and 4° C. for about 20 min. • The plate was then spun down at high speed (about 3200 g) for 30 min and then frozen in a −80° C. fridge. • A bare MSD plate (L15XA-3) was coated with 2 μg/mL of capture antibody (mouse Anti-IRAK4 antibody [2H9], ab119942) in PBS to 40 μL/well and incubated overnight at 4° C.
• The MSD coated plate was washed 3× (150 μL/well) with 1×TBST (CST #9997S). • The MSD plate was then blocked with 150 μL of blocking buffer [3% Blocker A (MSD, R93BA-4) in TBST]/well and shaken for 1 hr at RT and 600 rpm. • The MSD plate was washed 3× (150 μL/well) with 1×TBST. The sample RIPA lysates were then added to the MSD plate (50 μL/well) and shaken for 1 hr at RT and 600 rpm. • The MSD plate was washed 3× (150 μL/well) with 1×TBST and the primary detection antibody (Rabbit Anti-IRAK4 antibody [Y279], ab32511) was added to a final concentration of 1 μg/ml with 25 μL/well. The plate was then shaken for 1 hr at RT and 600 rpm. • The MSD plate was washed 3× (150 μL/well) with 1×TBST and the secondary detection antibody, SULFO-TAG anti-species antibody (Anti Rabbit Antibody (R32AB-5) MSD, R32AB-1) was added to a volume of 25 μL/well at a final concentration of 1 μg/ml. The plate was then shaken for 1 hr at RT and 600 rpm. • The MSD plate was then washed 3× (150 μL/well) with 1×TBST. • 1×MSD reading buffer was then added (150 μL/well) and the plate […].
(MSD, R92TC-2) • The MSD instrument was then read.
The remaining activity was calculated following the formula below:
• The DC50 was calculated by fitting the Curve using Xlfit (v5.3.1.3), equation 201: […]
The letter codes for IRAK4 DC50 indicate the concentration of compound required to degrade 50% of protein: A (<0.01 μM), B (0.01-0.1 μM), C (>0.1-0.2 μM), D (>0.2 μM).

Structure (SMILES)	DC50 [nM]
CN(C[C@H]1CC[C@H](n2cc3cc(NC(=O)c4cccc(C(F)(F)F)n4)ccc3n2)CC1)C1CCN(c2ccc3c(N4CCC(=O)NC4=O)cncc3c2)CC1 [I-19]	10 to 100
O=C1CCN(c2cnc3c(C4CCN(C[C@H]5CC[C@H](n6cc7cc(NC(=O)c8cccc(C(F)(F)F)n8)ccc7n6)CC5)CC4)cccn23)C(=O)N1 [I-28]	> 200
CN(C[C@H]1CC[C@H](n2cc3cc(NC(=O)c4cccc(C(F)(F)F)n4)ncc3n2)CC1)C1CCN(c2cccn3c(N4CCC(=O)NC4=O)cnc23)CC1 [I-30]	100 to 200
CN(C[C@H]1CC[C@H](n2cc3cc(NC(=O)c4cccc(C(F)(F)F)n4)ncc3n2)CC1)C1CCN(c2ccn3c(N4CCC(=O)NC4=O)cnc3c2)CC1 [I-33]	< 10
COc1cc2nn([C@H]3CC[C@H](CN4CCC(c5ccn6c(N7CCC(=O)NC7=O)cnc6c5)CC4)CC3)cc2cc1NC(=O)c1cccc(C(F)(F)F)n1 [I-36, N-[2-[4-[[4-[3-(2,4-dioxohexahydropyrimidin-1-yl)imidazo[1,2-a]pyridin-7-yl]-1-piperidyl]methyl]cyclohexyl]-6-methoxy-indazol-5-yl]-6-(trifluoromethyl)pyridine-2-carboxamide]	< 10
O=C1CCN(c2cnc3cc(C4CCN(C[C@H]5CC[C@H](n6cc7cc(NC(=O)c8cccc(C(F)(F)F)n8)ncc7n6)CC5)CC4)ccn23)C(=O)N1 [I-37]	> 200
O=C1CCN(c2cnc3c(C4CCN(C[C@H]5C[C@H](n6cc7cc(NC(=O)c8cccc(C(F)(F)F)n8)ccc7n6)C5)CC4)cccn23)C(=O)N1 [I-39, N-[2-[3-[[4-[3-(2,4-dioxohexahydropyrimidin-1-yl)imidazo[1,2-a]pyridin-8-yl]-1-piperidyl]methyl]cyclobutyl]indazol-5-yl]-6-(trifluoromethyl)pyridine-2-carboxamide]	> 200
COc1cc2nc([C@H]3CC[C@H](CN(C)C4CCN(c5cccn6c(N7CCC(=O)NC7=O)cnc56)CC4)CC3)sc2cc1NC(=O)c1cccc(C(F)(F)F)n1 [I-44]	10 to 100
COc1cc2nn([C@H]3CC[C@H](CN4CCCN(c5cccn6c(N7CCC(=O)NC7=O)cnc56)CC4)CC3)cc2cc1NC(=O)c1cccc(C(F)(F)F)n1 [I-47]	10 to 100
Cc1cc2nn([C@H]3CC[C@H](CN4CCN(c5cccn6c(N7CCC(=O)NC7=O)cnc56)CC4)CC3)cc2cc1NC(=O)c1cccc(C(F)(F)F)n1 [I-49]	10 to 100
COc1cc2nn([C@H]3CC[C@H](CN4C[C@@H]5C[C@H]4CN5c4ccn5c(N6CCC(=O)NC6=O)cnc5c4)CC3)cc2cc1NC(=O)c1cccc(C(F)(F)F)n1 [I-52]	10 to 100
COc1cc2nn([C@H]3CC[C@H](CN4C[C@H]5C[C@@H]4CN5c4cccn5c(N6CCC(=O)NC6=O)cnc45)CC3)cc2cc1NC(=O)c1cccc(C(F)(F)F)n1 [I-55]	10 to 100
C[C@H]1CN(C[C@H]2CC[C@H](n3cc(NC(=O)c4cnn5ccc(N6C[C@H]7C[C@@H]6CO7)nc45)c(C(F)F)n3)CC2)CC[C@@H]1OCC#Cc1cccn2c(N3CCC(=O)NC3=O)cnc12 [I-61]	< 10
C[C@H]1CN(C[C@H]2CC[C@H](n3cc(NC(=O)c4cnn5ccc(N6C[C@H]7C[C@@H]6CO7)nc45)c(C(F)F)n3)CC2)CC[C@@H]1OCC#Cc1ccn2c(N3CCC(=O)NC3=O)cnc2c1 [I-63]	< 10

Second part, the compound after the results:

DC50 [nM]	Structure (SMILES)
10 to 100	O=C1CCN(c2cncc3c(C4CCN(C[C@H]5CC[C@H](n6cc7cc(NC(=O)c8cccc(C(F)(F)F)n8)ccc7n6)CC5)CC4)cccc23)C(=O)N1 [I-10]
< 10	O=C1CCN(c2cncc3cc(C4CCN(C[C@H]5CC[C@H](n6cc7cc(NC(=O)c8cccc(C(F)(F)F)n8)ncc7n6)CC5)CC4)ccc23)C(=O)N1 [I-18]
> 200	CN(C[C@H]1CC[C@H](n2cc3cc(NC(=O)c4cccc(C(F)(F)F)n4)ccc3n2)CC1)C1CCN(c2cccn3c(N4CCC(=O)NC4=O)cnc23)CC1 [I-27]
10 to 100	O=C1CCN(c2cnc3c(C4CCN(C[C@H]5CC[C@H](n6cc7cc(NC(=O)c8cccc(C(F)(F)F)n8)ncc7n6)CC5)CC4)cccn23)C(=O)N1 [I-29]
< 10	CN(C[C@H]1CC[C@H](n2cc3cc(NC(=O)c4cccc(C(F)(F)F)n4)ccc3n2)CC1)C1CCN(c2ccn3c(N4CCC(=O)NC4=O)cnc3c2)CC1 [I-35]
10 to 100	O=C1CCN(c2cnc3cc(C4CCN(C[C@H]5C[C@H](n6cc7cc(NC(=O)c8cccc(C(F)(F)F)n8)ccc7n6)C5)CC4)ccn23)C(=O)N1 [I-38]
10 to 100	COc1cc2nn([C@H]3C[C@H](CN4CCC(c5cccc6c(N7CCC(=O)NC7=O)cncc56)CC4)C3)cc2cc1NC(=O)c1cccc(C(F)(F)F)n1 [I-40]
< 10	O=C1CCN(c2cnc3cc(C#CCO[C@@H]4CCN(C[C@H]5C[C@H](n6cc(NC(=O)c7cnn8ccc(N9C[C@H]%10C[C@@H]9CO%10)nc78)c(C(F)F)n6)C5)C[C@@H]4F)ccn23)C(=O)N1 [I-42]
10 to 100	COc1cc2nn([C@H]3CC[C@H](CN(C)C4CCN(c5cccn6c(N7CCC(=O)NC7=O)cnc56)CC4)CC3)cc2cc1NC(=O)c1cc(F)cc(C(F)(F)F)c1 [I-43]
10 to 100	COc1cc2nn([C@H]3CC[C@H](CN4C5CCC4CN(c4ccn6c(N7CCC(=O)NC7=O)cnc6c4)C5)CC3)cc2cc1NC(=O)c1cccc(C(F)(F)F)n1 [I-45]
10 to 100	COc1cc2nc([C@H]3CC[C@H](CN4CCN(c5ccn6c(N7CCC(=O)NC7=O)cnc6c5OC)CC4)CC3)sc2cc1NC(=O)c1cccc(C(F)(F)F)n1 [I-48]
10 to 100	COc1cc2nc([C@H]3CC[C@H](CN4CCN(c5ccn6c(N7CCC(=O)NC7=O)cnc6c5C)CC4)CC3)sc2cc1NC(=O)c1cccc(C(F)(F)F)n1 [I-50]
< 10	COc1cc2nn([C@H]3CC[C@H](CN4C5CCC4CN(c4cccn6c(N7CCC(=O)NC7=O)cnc46)C5)CC3)cc2cc1NC(=O)c1cccc(C(F)(F)F)n1 [I-53]
10 to 100	COc1cc2nn([C@H]3CC[C@H](CN4C[C@@H]5C[C@H]4CN5c4cccn5c(N6CCC(=O)NC6=O)cnc45)CC3)cc2cc1NC(=O)c1cccc(C(F)(F)F)n1 [I-54]
10 to 100	COc1cc2nn([C@H]3CC[C@H](CN4C[C@H]5C[C@@H]4CN5c4ccn5c(N6CCC(=O)NC6=O)cnc5c4)CC3)cc2cc1NC(=O)c1cccc(C(F)(F)F)n1 [I-56]
10 to 100	COc1cc2nn([C@H]3CC[C@H](CN4C5CC4CN(c4cccn6c(N7CCC(=O)NC7=O)cnc46)C5)CC3)cc2cc1NC(=O)c1cccc(C(F)(F)F)n1 [I-57]
> 200	COc1cc2nc([C@H]3CC[C@H](CN4CCC(c5cc(OC)c6ncc(N7CCC(=O)NC7=O)n6c5)CC4)CC3)sc2cc1NC(=O)c1cccc(C(F)(F)F)n1 [I-58]
< 10	C[C@H]1CN(C[C@H]2C[C@H](n3cc(NC(=O)c4cnn5ccc(N6C[C@H]7C[C@@H]6CO7)nc45)c(C(F)F)n3)C2)CC[C@@H]1OCC#Cc1ccn2c(N3CCC(=O)NC3=O)cnc2c1 [I-59]
< 10	O=C1CCN(c2cnc3c(C#CCN4CCN(C[C@H]5CC[C@H](n6cc(NC(=O)c7cnn8ccc(N9C[C@H]%10C[C@@H]9CO%10)nc78)c(C(F)F)n6)CC5)CC4)cccn23)C(=O)N1 [I-60]
< 10	C[C@@H]1CN(C[C@H]2CC[C@H](n3cc(NC(=O)c4cnn5ccc(N6C[C@H]7C[C@@H]6CO7)nc45)c(C(F)F)n3)CC2)CC[C@H]1OCC#Cc1cccn2c(N3CCC(=O)NC3=O)cnc12 [I-62]
< 10	C[C@@H]1CN(C[C@H]2CC[C@H](n3cc(NC(=O)c4cnn5ccc(N6C[C@H]7C[C@@H]6CO7)nc45)c(C(F)F)n3)CC2)CC[C@H]1OCC#Cc1ccn2c(N3CCC(=O)NC3=O)cnc2c1 [I-64]

Reference: US20250375526A1, “IRAK DEGRADERS AND USES THEREOF” (Kymera Therapeutics, Inc., priority 2020, published 2025)
